Test results published in PubChem BioAssay (NCI).
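These data come from cells grown in 96-well plates and exposed to compound for 48 hours at five concentrations. GI50 marks 50% less growth. The concentration for full growth arrest is given as TGI.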

How the values were obtained:
Assay in all cases: inhibition of tumour cell growth, NCI panel, 48 h
HOP-92 NSCLC = tested on: HOP-92 NSCLC
UO-31 renal = tested on: UO-31 renal
SK-OV-3 ovarian = tested on: SK-OV-3 ovarian
IGROV1 ovarian = tested on: IGROV1 ovarian
OVCAR-3 ovarian = tested on: OVCAR-3 ovarian
CCRF-CEM leukemia = tested on: CCRF-CEM leukemia
SNB-19 CNS = tested on: SNB-19 CNS
HS 578T breast = tested on: HS 578T breast
NCI-H522 lung = tested on: NCI-H522 lung
M14 melanoma = tested on: M14 melanoma

SMILES | TGI (HOP-92 NSCLC) | TGI (UO-31 renal) | TGI (SK-OV-3 ovarian) | TGI (IGROV1 ovarian) | TGI (OVCAR-3 ovarian) | TGI (CCRF-CEM leukemia) | TGI (SNB-19 CNS) | TGI (HS 578T breast) | TGI (NCI-H522 lung) | TGI (M14 melanoma) | GI50 (HOP-92 NSCLC) | GI50 (UO-31 renal) | GI50 (SK-OV-3 ovarian) | GI50 (IGROV1 ovarian) | GI50 (OVCAR-3 ovarian) | GI50 (CCRF-CEM leukemia) | GI50 (SNB-19 CNS) | GI50 (HS 578T breast) | GI50 (NCI-H522 lung) | GI50 (M14 melanoma)
CC(=O)c1cccc(NC(=O)C(=O)c2c(O)c3ccccc3oc2=O)c1 | > 100 µM | > 100 µM | > 100 µM | > 100 µM | > 100 µM | > 100 µM | > 100 µM | > 100 µM | > 100 µM | > 100 µM | – | – | – | – | – | – | – | – | – | –
COc1ccc(C2=NC(=O)NC2c2ccc(OC)cc2)cc1 (centres undefined) | 30.5 µM | > 100 µM | > 100 µM | > 100 µM | 35.3 µM | > 100 µM | > 100 µM | 48.5 µM | 60.9 µM | 25.4 µM | 1.95 µM | 20.7 µM | 19.9 µM | 23.2 µM | 10.8 µM | 38.9 µM | 16.9 µM | 7.18 µM | 5.02 µM | 4.03 µM
CN(Cc1ccc(F)cc1)c1ccc(CO)c(Cl)c1 | 24 µM | > 65.1 µM | 70.9 µM | 3.47 µM | 15 µM | > 100 µM | > 100 µM | 97.3 µM | 97.3 µM | > 76.9 µM | 3.87 µM | 7.53 µM | 12.2 µM | 0.476 µM | 3.55 µM | 28.9 µM | 38.3 µM | 27.4 µM | 26.5 µM | 23.3 µM
CCOC(=O)c1ccc(NC(=O)NC2=NCCS2)cc1 | > 100 µM | > 100 µM | 7.76 µM | > 100 µM | 0.897 µM | > 100 µM | > 100 µM | > 100 µM | – | > 100 µM | 0.418 µM | 5.13 µM | 1.03 µM | 2.11 µM | 0.289 µM | 0.433 µM | 2.86 µM | 1.97 µM | 0.352 µM | 2.66 µM
C=C1C(=O)O[C@H]2[C@H]1CC/C(Cn1cc(-c3ccc(N)cc3)nn1)=C\CC[C@@]1(C)O[C@@H]21 | 5.33 µM | 10.1 µM | 34.4 µM | 14.1 µM | 3.99 µM | 20.3 µM | 41.1 µM | 27.4 µM | 3.07 µM | 10.8 µM | 2.13 µM | 1.87 µM | 18.3 µM | 2.96 µM | 1.62 µM | 2 µM | 12.7 µM | 4.46 µM | 1.37 µM | 2.97 µM
O=[N+]([O-])c1cc([As](Br)c2ccc(O)c([N+](=O)[O-])c2)ccc1O | 2.96 µM | 3.23 µM | 9.71 µM | 3.6 µM | 3.53 µM | 0.436 µM | 3.72 µM | 5.93 µM | 0.45 µM | 4.33 µM | – | – | – | – | – | – | – | – | – | –
C=C1C(=O)O[C@H]2[C@H]1CC/C(COC(=O)NCc1ccc(Cn3c(=O)sn(CCCCC)c3=O)cc1)=C\CC[C@@]1(C)O[C@@H]21 | 3.01 µM | 2.8 µM | 21.1 µM | 4.8 µM | 2.75 µM | 1.67 µM | 17.5 µM | 14 µM | 3.1 µM | 4.76 µM | 1.38 µM | 1.46 µM | 8.77 µM | 2.11 µM | 1.41 µM | 0.364 µM | 5.06 µM | 2.79 µM | 1.59 µM | 1.89 µM
CCCCCCCCCc1ccc(OCCOCCOCCOCCOCCOCCOCCOCCOCCO)cc1 | 3.07 µM | 4.82 µM | 2.45 µM | 4.32 µM | 2.29 µM | 2.04 µM | 2.73 µM | 9.03 µM | 1.39 µM | 2.13 µM | 0.792 µM | 0.733 µM | 0.991 µM | 0.999 µM | 0.428 µM | 0.305 µM | 0.617 µM | 1.17 µM | 0.302 µM | 0.892 µM
CC(=O)c1ccc2c(c1)N(CCCN1CCN(CCO)CC1)c1ccccc1S2 | 5.97 µM | 5.46 µM | 10.1 µM | 6.12 µM | 8.9 µM | 5.53 µM | 6.97 µM | 4.52 µM | 3.64 µM | 3.6 µM | 1.1 µM | 1.79 µM | 2.84 µM | 2.16 µM | 2.85 µM | 1.68 µM | 2.44 µM | 1.66 µM | 1.67 µM | 1.88 µM
CCOC(=O)c1sc(-c2ccc(OS(=O)(=O)C[C@]34CCC(CC3=O)C4(C)C)c(C=O)c2)nc1C | 3.7 µM | 4.65 µM | 4.09 µM | 2.85 µM | 2.72 µM | > 50 µM | 2.15 µM | 4.23 µM | 2.89 µM | 2.45 µM | 0.951 µM | 1.05 µM | 1.3 µM | 1.07 µM | 0.904 µM | 1.01 µM | 0.898 µM | 1.32 µM | 1.02 µM | 1.09 µM
C=C(CN1CCc2c([nH]c3ccccc23)C1)c1ccc(C(=O)Nc2ccccc2N)cc1 | 11.4 µM | 9.89 µM | 11.6 µM | 18.9 µM | 29.1 µM | 46.3 µM | 30.8 µM | 23.3 µM | 11.5 µM | 14.7 µM | 1.66 µM | 3.53 µM | 3.14 µM | 1.08 µM | 18.4 µM | 0.0581 µM | 10.7 µM | 4.75 µM | 4.13 µM | 4.13 µM
